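These data come from cells grown in 96-well plates and exposed to compound for 48 hours at five concentrations. GI50 is the concentration that inhibits growth by half.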 The source made the active and inactive calls. Cut-off read from the data, not from the text of the source: active = GI50 up to about 1.1 µM and inactive = higher.
Experiments:
Experiment in all cases: NCI anticancer screen, dose series, 48 h
OVCAR-8 = tested on: OVCAR-8
RXF 393 = tested on: RXF 393
HOP-18 = tested on: HOP-18
COLO 205 = tested on: COLO 205
OVCAR-5 = tested on: OVCAR-5
TK-10 = tested on: TK-10
NCI-H23 = tested on: NCI-H23
SN12C = tested on: SN12C
EKVX = tested on: EKVX
SNB-19 = tested on: SNB-19
CCRF-CEM = tested on: CCRF-CEM
HCT-15 = tested on: HCT-15
KM12 = tested on: KM12
U-251 = tested on: U-251
NCI-H226 = tested on: NCI-H226
MCF7 = tested on: MCF7
DU-145 = tested on: DU-145
NCI/ADR-RES = tested on: NCI/ADR-RES
PC-3 = tested on: PC-3
MDA-MB-231 = tested on: MDA-MB-231

SMILES | GI50 (OVCAR-8) | GI50 (RXF 393) | GI50 (HOP-18) | GI50 (COLO 205) | GI50 (OVCAR-5) | GI50 (TK-10) | GI50 (NCI-H23) | GI50 (SN12C) | GI50 (EKVX) | GI50 (SNB-19) | GI50 (CCRF-CEM) | GI50 (HCT-15) [µM] | GI50 (KM12) | GI50 (U-251) | GI50 (NCI-H226) | GI50 (MCF7) | GI50 (DU-145) | GI50 (NCI/ADR-RES) | GI50 (PC-3) | GI50 (MDA-MB-231)
Cc1nn(C(=O)CC(=O)Nc2ccccc2Cl)c(C)c1/N=N/c1ccccc1Cl | > 100 µM (inactive) | > 100 µM (inactive) | > 100 µM (inactive) | > 100 µM (inactive) | > 100 µM (inactive) | > 100 µM (inactive) | > 100 µM (inactive) | > 100 µM (inactive) | > 100 µM (inactive) | > 100 µM (inactive) | > 100 µM (inactive) | > 100 | > 100 µM (inactive) | > 100 µM (inactive) | – | – | – | – | – | –
O=C(c1ccc(Cl)cc1)N(C(=S)N1CCN(c2ccccc2)CC1)c1ccccc1 | > 100 µM (inactive) | > 100 µM (inactive) | > 100 µM (inactive) | > 100 µM (inactive) | > 100 µM (inactive) | > 100 µM (inactive) | > 100 µM (inactive) | > 100 µM (inactive) | – | > 100 µM (inactive) | > 100 µM (inactive) | > 100 | > 100 µM (inactive) | > 100 µM (inactive) | 53.8 µM (inactive) | – | – | – | – | –
CCCCCCCCCc1c(Cl)nc(Cl)nc1Cl | 16.1 µM (inactive) | 14.4 µM (inactive) | – | 19.5 µM (inactive) | 21 µM (inactive) | 23 µM (inactive) | 9.62 µM (inactive) | 12.9 µM (inactive) | 22.7 µM (inactive) | 16.2 µM (inactive) | 2.17 µM (inactive) | 12.3 | 32.7 µM (inactive) | 18.9 µM (inactive) | 5.62 µM (inactive) | 18.4 µM (inactive) | 17.3 µM (inactive) | 18.8 µM (inactive) | 15.7 µM (inactive) | 12.3 µM (inactive)
COc1cc(OC)c2c(=O)cc(-c3ccccc3F)[nH]c2c1 | 51.4 µM (inactive) | 29.8 µM (inactive) | – | 75.9 µM (inactive) | 73.3 µM (inactive) | 39.9 µM (inactive) | 32.9 µM (inactive) | > 100 µM (inactive) | 86.5 µM (inactive) | 26 µM (inactive) | 88.9 µM (inactive) | 28.6 | 32.9 µM (inactive) | 35.8 µM (inactive) | 23.7 µM (inactive) | 54.5 µM (inactive) | 76.4 µM (inactive) | 35.3 µM (inactive) | 47.2 µM (inactive) | 76.7 µM (inactive)
Oc1cccc(/C=N/N=c2/[nH][nH]/c(=N/N=C/c3cccc(O)c3)c3ccccc23)c1 | 2.72 µM (inactive) | 49.2 µM (inactive) | – | 30.4 µM (inactive) | 40.1 µM (inactive) | 22.1 µM (inactive) | 16.2 µM (inactive) | 11.6 µM (inactive) | 18.3 µM (inactive) | 24.4 µM (inactive) | 3.83 µM (inactive) | 11 | 25.2 µM (inactive) | 13.3 µM (inactive) | 14.5 µM (inactive) | 26.7 µM (inactive) | 23.9 µM (inactive) | 22.2 µM (inactive) | 15.8 µM (inactive) | 7.89 µM (inactive)
O=C(CC(=O)N1N=C(N2c3ccccc3Sc3ccccc32)CC1c1ccccc1)Nc1ccc(Cl)cc1 (stereo not given) | > 100 µM (inactive) | > 100 µM (inactive) | > 100 µM (inactive) | > 100 µM (inactive) | > 100 µM (inactive) | > 100 µM (inactive) | > 100 µM (inactive) | > 100 µM (inactive) | > 100 µM (inactive) | > 100 µM (inactive) | > 10 µM (inactive) | > 100 | > 100 µM (inactive) | > 100 µM (inactive) | – | – | – | – | – | –
COc1cc(C2CC(C)(Nc3ccccc3)Oc3cc4c(cc32)OCO4)cc(OC)c1OC (stereo not given) | 0.483 µM (active) | 0.222 µM (active) | – | 0.839 µM (active) | 2.71 µM (inactive) | 1.88 µM (inactive) | 0.301 µM (active) | 0.247 µM (active) | 1.82 µM (inactive) | 0.736 µM (active) | 0.124 µM (active) | 0.161 | 0.19 µM (active) | 0.279 µM (active) | 0.855 µM (active) | 0.135 µM (active) | 0.352 µM (active) | 0.277 µM (active) | 0.251 µM (active) | 0.853 µM (active)
Cc1cc(=O)oc2c(CNC(CO)C(=O)O)c(O)ccc12 (stereo not given) | > 100 µM (inactive) | > 100 µM (inactive) | – | > 100 µM (inactive) | > 100 µM (inactive) | 80.9 µM (inactive) | > 100 µM (inactive) | > 100 µM (inactive) | > 100 µM (inactive) | > 100 µM (inactive) | > 100 µM (inactive) | > 100 | > 100 µM (inactive) | > 100 µM (inactive) | > 100 µM (inactive) | > 100 µM (inactive) | > 100 µM (inactive) | > 100 µM (inactive) | > 100 µM (inactive) | > 100 µM (inactive)
O=C1c2ccccc2C2(Br)C(=O)c3ccccc3C12 (stereo not given) | > 100 µM (inactive) | > 100 µM (inactive) | > 100 µM (inactive) | > 100 µM (inactive) | > 100 µM (inactive) | > 100 µM (inactive) | > 100 µM (inactive) | > 100 µM (inactive) | > 100 µM (inactive) | – | 42.4 µM (inactive) | > 100 | > 100 µM (inactive) | > 100 µM (inactive) | – | – | – | – | – | –
Cc1cn(C2CC(O)C(Cn3nncc3Cn3nc(Br)c(=O)[nH]c3=O)O2)c(=O)[nH]c1=O (stereo not given) | > 100 µM (inactive) | > 100 µM (inactive) | – | > 100 µM (inactive) | > 100 µM (inactive) | > 100 µM (inactive) | > 100 µM (inactive) | > 100 µM (inactive) | > 100 µM (inactive) | > 100 µM (inactive) | > 100 µM (inactive) | > 100 | > 100 µM (inactive) | > 100 µM (inactive) | > 100 µM (inactive) | > 100 µM (inactive) | > 100 µM (inactive) | > 100 µM (inactive) | > 100 µM (inactive) | > 100 µM (inactive)
C1CCN2CC34CC(CC5CCCN(C6CCCC3N6)C54)C2C1 (stereo not given) | > 100 µM (inactive) | 78.9 µM (inactive) | – | > 100 µM (inactive) | > 100 µM (inactive) | > 100 µM (inactive) | > 100 µM (inactive) | > 100 µM (inactive) | > 100 µM (inactive) | > 100 µM (inactive) | > 100 µM (inactive) | > 100 | > 100 µM (inactive) | > 100 µM (inactive) | > 100 µM (inactive) | > 100 µM (inactive) | > 100 µM (inactive) | > 100 µM (inactive) | > 100 µM (inactive) | > 100 µM (inactive)
COC(=O)C1(C(C)C)CCc2c(OC)ccc(OC)c2C1=O (stereo not given) | > 100 µM (inactive) | – | > 100 µM (inactive) | > 100 µM (inactive) | > 100 µM (inactive) | > 100 µM (inactive) | – | > 100 µM (inactive) | 75.2 µM (inactive) | > 100 µM (inactive) | > 100 µM (inactive) | > 100 | > 100 µM (inactive) | > 100 µM (inactive) | – | – | – | – | – | –
